Measurements from patent US5962314A, “Calcium receptor-active molecules” (priority 1997, dated 1999).

Key:
serum ionized calcium [1] = assay: serum ionized Ca2+ in rats; assay type: in vivo, rat; details: NPS R-568 oral
Procedure: Compounds shown to activate the bovine parathyroid cell calcium receptor in vitro were tested for hypocalcemic activity in vivo. Male Sprague-Dawley rats (200 g) were maintained on a low calcium diet for one week prior to receiving test substance or vehicle as control. Blood was collected from the tail vein three hours after the intra-peritoneal administration of NPS 467. […] Serum total calcium, albumin and phosphate were measured by techniques well known in the art.
Rats (male, Sprague-Dawley, 250-300 g) were fed standard rat chow and fasted overnight prior to the experiment. NPS R-467 was suspended in corn oil and administered as a single oral dose through a gavage needle. Three hours later a sample of blood was taken from the tail vein and assessed for ionized Ca^2+ levels.

serum ionized calcium [2] = assay: serum ionized calcium in a human; assay type: in vivo; details: higher single oral doses
From the text: A range of single oral doses was used to assess safety, tolerance, and changes in primary hyperparathyroidism markers (e.g., plasma concentrations of parathyroid hormone and ionized serum calcium) and of serum calcitonin.

calcium receptor = target: T1, calcium receptor (Homo sapiens, UniProt P41180); assay: Xenopus oocytes injected with human parathyroid cell mRNA; assay type: cell-based; details: for effect on Cl- current: oocytes injected with human parathyroid mRNA; for effect in water-injected oocytes: neomycin B 10 mM
T1 sequence (P41180 20-1078): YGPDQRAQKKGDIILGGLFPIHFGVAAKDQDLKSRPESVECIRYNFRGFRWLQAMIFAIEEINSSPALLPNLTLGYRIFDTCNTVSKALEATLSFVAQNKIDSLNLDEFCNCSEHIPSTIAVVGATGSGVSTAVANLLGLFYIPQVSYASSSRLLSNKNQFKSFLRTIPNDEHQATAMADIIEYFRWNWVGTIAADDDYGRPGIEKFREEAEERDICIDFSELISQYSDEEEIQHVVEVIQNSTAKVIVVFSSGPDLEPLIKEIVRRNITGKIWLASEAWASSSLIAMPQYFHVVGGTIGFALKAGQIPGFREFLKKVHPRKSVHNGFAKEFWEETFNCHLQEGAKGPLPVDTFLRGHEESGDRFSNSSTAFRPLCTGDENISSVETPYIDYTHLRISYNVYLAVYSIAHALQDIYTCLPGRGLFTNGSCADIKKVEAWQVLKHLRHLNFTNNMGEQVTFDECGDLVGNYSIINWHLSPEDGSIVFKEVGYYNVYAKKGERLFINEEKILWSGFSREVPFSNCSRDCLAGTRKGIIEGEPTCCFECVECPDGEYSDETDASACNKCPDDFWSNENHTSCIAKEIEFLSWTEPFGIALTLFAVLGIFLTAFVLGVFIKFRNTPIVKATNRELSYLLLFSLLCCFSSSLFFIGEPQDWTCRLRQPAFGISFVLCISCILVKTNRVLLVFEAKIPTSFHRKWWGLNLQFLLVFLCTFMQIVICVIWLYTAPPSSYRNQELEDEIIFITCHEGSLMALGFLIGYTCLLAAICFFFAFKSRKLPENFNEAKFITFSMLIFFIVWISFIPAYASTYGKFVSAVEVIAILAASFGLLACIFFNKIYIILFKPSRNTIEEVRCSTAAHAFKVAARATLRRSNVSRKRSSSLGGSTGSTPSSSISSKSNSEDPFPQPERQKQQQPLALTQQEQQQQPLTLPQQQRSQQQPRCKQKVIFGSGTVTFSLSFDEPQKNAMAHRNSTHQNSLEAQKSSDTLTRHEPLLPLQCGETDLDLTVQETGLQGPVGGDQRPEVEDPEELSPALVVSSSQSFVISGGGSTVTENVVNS
Procedure: Oocytes were injected with poly(A)^+ -enriched mRNA from human parathyroid tissue (hyperplastic glands from a case of secondary HPT).
Following incubation, an oocyte was placed into a 100-μl plastic chamber and superfused with MBS at a flow rate of 0.5 ml/min using a peristaltic pump. Test molecules or inorganic polycations were added by rapidly moving the tubing into different buffers. Recording and current-passing electrodes were constructed from thin-wall capillary tubing pulled to a resistance of 1-3 Mohms and filled with 3 M KCl. […] Currents were recorded directly onto a strip chart recorder.
Using this screen allows one to test for an action directly on the calcium receptor. Oocytes expressing the calcium receptor also responded to several molecules active on intact parathyroid cells when screened as follows. […] This offers rather compelling evidence showing that these molecules act on the calcium receptor or on some other protein intimately associated with its function.

Row | Structure (SMILES) | hypocalcemic response after complete nephrectomy (serum ionized calcium [1]; prior complete nephrectomy) | effect on serum Ca2+, oral (serum ionized calcium [1]; rats) | effect on serum ionized calcium in human (serum ionized calcium [2]) | mobilization of intracellular Ca2+ in oocytes (calcium receptor; hexacyclen 135 μM, neomycin 100 μM, NPS 382 5 mM) | effect on Cl- current (calcium receptor; listed as Neomycin B) | effect on Cl- current (calcium receptor; listed as neomycin B) | effect in water-injected oocytes (calcium receptor; listed as Neomycin B) | effect in water-injected oocytes (calcium receptor; listed as neomycin B)
1 | COc1cccc([C@@H](C)NCCCc2ccccc2Cl)c1 [NPS R-568, (R)-(+)-N-[3-(2-chlorophenyl)propyl]-α-methyl-3-methoxybenzylamine] | only marginally affected | dose-dependent decrease in the levels of serum Ca^2+ | decrease in serum ionized calcium concentration |  |  |  |  | 
2 | NC[C@@H]1O[C@H](O[C@H]2[C@@H](O)[C@H](O[C@@H]3[C@@H](O)[C@H](N)C[C@H](N)[C@H]3O[C@H]3O[C@H](CN)[C@@H](O)[C@H](O)[C@H]3N)O[C@@H]2CO)[C@H](N)[C@@H](O)[C@@H]1O [Neomycin] |  |  |  | also effective | evoked oscillatory increases in the Cl^- | evokes oscillating increases in the Cl^- | failed to elicit a response in five water-injected oocytes | failed to cause any change in the current
